pEC50, pKi: −log10 of the molar value.
How the values were obtained:
[1] = molecular target: T1, EP2 (Homo sapiens, UniProt P43116); assay: EP2 flipr; format: cell-based
Source text: (§1) U.S. patent application Ser. No. 11/553,143, filed on Oct. 26, 2006, incorporated by reference herein, describes the methods used to obtain the in vitro data in the table below.

[2] = molecular target: T1, EP2; assay: EP2 cAMP; format: cell-based
Source text: as §1

[3] = molecular target: T1, EP2; assay: EP2 binding (Ki)
Source text: as §1

[4] = molecular target: T2, EP4 (Homo sapiens, UniProt P35408); assay: EP4 flipr; format: cell-based
Source text: as §1

[5] = molecular target: T2, EP4; assay: EP4 binding (KI)
Source text: as §1

[6] = molecular target: T3, hEP3A (Homo sapiens, UniProt P43115); assay: Other receptors: hEP3A functional EC50; format: cell-based
T3 sequence (P43115 1-390): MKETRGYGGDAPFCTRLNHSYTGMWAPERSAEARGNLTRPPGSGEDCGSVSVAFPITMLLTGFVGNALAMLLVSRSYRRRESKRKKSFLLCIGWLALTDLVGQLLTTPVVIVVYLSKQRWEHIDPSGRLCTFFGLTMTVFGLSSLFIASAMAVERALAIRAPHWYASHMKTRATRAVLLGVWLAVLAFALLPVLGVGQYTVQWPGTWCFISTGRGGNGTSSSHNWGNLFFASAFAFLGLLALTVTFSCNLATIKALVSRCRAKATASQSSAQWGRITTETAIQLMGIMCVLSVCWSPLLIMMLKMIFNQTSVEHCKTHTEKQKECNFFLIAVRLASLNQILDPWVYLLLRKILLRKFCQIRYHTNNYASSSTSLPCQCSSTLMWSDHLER
Source text: as §1

[7] = molecular target: T4, hTP (Homo sapiens, UniProt P21731); assay: Other receptors: hTP functional EC50; format: cell-based
T4 sequence (P21731 1-343): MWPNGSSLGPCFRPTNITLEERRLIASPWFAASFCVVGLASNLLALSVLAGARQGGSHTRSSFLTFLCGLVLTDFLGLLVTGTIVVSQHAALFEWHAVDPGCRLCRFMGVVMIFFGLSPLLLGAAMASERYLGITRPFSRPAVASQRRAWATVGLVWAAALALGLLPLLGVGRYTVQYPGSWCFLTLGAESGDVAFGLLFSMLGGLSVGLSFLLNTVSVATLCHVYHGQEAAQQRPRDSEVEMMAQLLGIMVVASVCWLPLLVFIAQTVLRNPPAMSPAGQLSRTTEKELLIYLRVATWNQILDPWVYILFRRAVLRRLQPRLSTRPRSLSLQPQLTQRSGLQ
Source text: as §1

[8] = molecular target: hIP (Homo sapiens, UniProt P43119); assay: Other receptors: hIP functional EC50; format: cell-based
Source text: as §1

[9] = molecular target: T5, hDP (Homo sapiens, UniProt Q13258); assay: Other receptors: hDP functional EC50; format: cell-based
T5 sequence (Q13258 1-359): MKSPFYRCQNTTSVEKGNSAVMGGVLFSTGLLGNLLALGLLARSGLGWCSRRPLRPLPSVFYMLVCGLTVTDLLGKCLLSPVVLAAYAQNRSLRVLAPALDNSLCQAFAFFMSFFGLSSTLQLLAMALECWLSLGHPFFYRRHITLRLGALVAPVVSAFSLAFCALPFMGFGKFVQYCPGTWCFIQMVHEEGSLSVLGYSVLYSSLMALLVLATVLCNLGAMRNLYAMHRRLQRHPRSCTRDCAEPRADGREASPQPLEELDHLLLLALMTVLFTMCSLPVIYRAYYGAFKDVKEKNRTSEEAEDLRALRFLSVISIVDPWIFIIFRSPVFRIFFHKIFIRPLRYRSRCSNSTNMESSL
Source text: as §1

[10] = system: normotensive dogs; assay: Intraocular pressure and ocular surface hyperemia in normotensive dogs; format: in vivo; conditions: 0.01%, once daily for 5 days
Description: (§2) U.S. Pat. No. 7,091,231 describes the methods used for these in vivo tests.
5-(3-((1R,2R,3R,5R)-5-chloro-2-((3,5-dichlorophenylthio)methyl)-3-hydroxycyclopentyl)propyl)-thiophene-2-carboxylic acid (20) was tested in normotensive dogs at 0.01%, dosing once daily for 5 days. The maximum intraocular pressure (IOP) decrease from baseline was 6.3 mmHg (35%) at 6 h; the maximum ocular surface hyperemia (OSH) score was 1.7 at 52 h.

[11] = system: laser-induced hypertensive monkeys; assay: Intraocular pressure in laser-induced hypertensive monkeys; format: in vivo; conditions: 0.01%, one single day dose, at 24 h
Description: as §2
The composition and dosage regimen of In vivo example 1 was also tested in laser-induced hypertensive monkeys, using one single day dose. At 0.01%, the maximum IOP decrease from baseline was 13.9 mmHg (40%) at 24 h.

T2 sequence (P35408 whole entry): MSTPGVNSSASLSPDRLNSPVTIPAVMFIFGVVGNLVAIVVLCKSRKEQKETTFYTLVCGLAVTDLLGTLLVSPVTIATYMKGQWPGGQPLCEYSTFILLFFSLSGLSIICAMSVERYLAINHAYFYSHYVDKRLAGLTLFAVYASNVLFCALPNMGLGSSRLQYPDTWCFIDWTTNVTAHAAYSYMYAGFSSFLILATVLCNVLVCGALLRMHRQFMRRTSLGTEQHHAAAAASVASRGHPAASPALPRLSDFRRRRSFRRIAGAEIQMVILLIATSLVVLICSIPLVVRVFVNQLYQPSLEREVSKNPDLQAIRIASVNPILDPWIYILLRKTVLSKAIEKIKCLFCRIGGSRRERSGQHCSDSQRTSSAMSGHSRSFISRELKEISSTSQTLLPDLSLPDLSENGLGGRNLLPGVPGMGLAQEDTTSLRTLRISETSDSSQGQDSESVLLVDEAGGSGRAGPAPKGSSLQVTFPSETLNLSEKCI
Chain of hIP (P43119 whole entry): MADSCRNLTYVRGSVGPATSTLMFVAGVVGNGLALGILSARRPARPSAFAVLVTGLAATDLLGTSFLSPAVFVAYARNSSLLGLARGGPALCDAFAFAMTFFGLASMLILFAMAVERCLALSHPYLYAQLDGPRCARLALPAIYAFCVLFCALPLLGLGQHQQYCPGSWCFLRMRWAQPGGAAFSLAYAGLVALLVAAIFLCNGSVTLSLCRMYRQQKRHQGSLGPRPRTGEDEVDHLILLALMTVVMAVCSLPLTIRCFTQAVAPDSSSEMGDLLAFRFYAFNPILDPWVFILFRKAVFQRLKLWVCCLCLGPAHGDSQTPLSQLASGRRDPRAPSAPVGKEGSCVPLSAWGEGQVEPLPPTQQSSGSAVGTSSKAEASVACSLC
T1 sequence (P43116 whole entry): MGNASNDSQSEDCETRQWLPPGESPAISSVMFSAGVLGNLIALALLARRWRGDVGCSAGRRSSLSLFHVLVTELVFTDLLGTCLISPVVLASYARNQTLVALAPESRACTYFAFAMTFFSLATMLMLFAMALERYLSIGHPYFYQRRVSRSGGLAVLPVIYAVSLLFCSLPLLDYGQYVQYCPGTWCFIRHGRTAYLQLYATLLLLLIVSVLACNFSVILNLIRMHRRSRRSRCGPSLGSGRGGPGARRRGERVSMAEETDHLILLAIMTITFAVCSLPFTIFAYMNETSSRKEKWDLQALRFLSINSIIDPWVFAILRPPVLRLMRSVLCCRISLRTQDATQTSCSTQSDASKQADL

SMILES	pEC50 [1]	pEC50 [2]	pKi [3]	pEC50 [4]	pKi [5]	EC50 [6] [nM]	EC50 [7] [nM]	EC50 [8] [nM]	EC50 [9] [nM]	maximum intraocular pressure (IOP) decrease from baseline (percent) ([10]; at 6 h) [%]	maximum ocular surface hyperemia (OSH) score ([10]; at 52 h)	maximum IOP decrease from baseline [11] [mmHg]	maximum IOP decrease from baseline (percent) [11] [%]
O=C(O)CCC/C=C\C[C@@H]1[C@@H](CSc2cc(Cl)cc(Cl)c2)[C@H](O)C[C@H]1Cl [compound 5, (Z)-7-[(1R,2R,3R,5R)-5-Chloro-2-(3,5-dichloro-phenylsulfanylmethyl)-3-hydroxy-cyclopentyl]-hept-5-enoic acid]	5.47	9.40	7.66	< 5.00	6.42	> 10000	1720	> 10000	> 10000				
CC(=O)N(C[C@@H]1[C@@H](C/C=C\CCCC(=O)O)[C@H](Cl)C[C@H]1O)c1cc(Cl)cc(Cl)c1 [compound 10, (Z)-7-((1R,2S,3R,5R)-2-{[Acetyl-(3,5-dichloro-phenyl)-amino]-methyl}-5-chloro-3-hydroxy-cyclopentyl)-hept-5-enoic acid]	5.20	7.54	5.68		< 5.00		2680	> 10000					
O=C(O)CCC/C=C\C[C@@H]1[C@@H](CNc2cc(Cl)cc(Cl)c2)[C@H](O)C[C@H]1Cl [compound 11, (Z)-7-{(1R,2S,3R,5R)-5-Chloro-2-[(3,5-dichloro-phenylamino)-methyl]-3-hydroxy-cyclopentyl}-hept-5-enoic acid]	6.87	9.30	7.74	< 5.00	5.99	> 10000	> 10000	> 10000					
O=C(O)c1ccc(CCC[C@@H]2[C@@H](CNc3cc(Cl)cc(Cl)c3)[C@H](O)C[C@H]2Cl)s1 [compound 15, 5-(3-((1R,2S,3R,5R)-5-chloro-2-((3,5-dichlorophenylamino)methyl)-3-hydroxycyclopentyl)propyl)-thiophene-2-carboxylic acid]	< 5.00	6.96	6.47										
O=C(O)c1ccc(CCC[C@@H]2[C@@H](CSc3cc(Cl)cc(Cl)c3)[C@H](O)C[C@H]2Cl)s1 [compound 20, 5-(3-((1R,2R,3R,5R)-5-chloro-2-((3,5-dichlorophenylthio)methyl)-3-hydroxycyclopentyl)propyl)-thiophene-2-carboxylic acid]	7.23	9.96	9.52	< 5.00	6.08					35	1.7	13.9	40
O=C(O)c1ccc(CCC[C@@H]2[C@@H](C[S+]([O-])c3cc(Cl)cc(Cl)c3)[C@H](O)C[C@H]2Cl)s1 (stereo partly drawn) [compound 22, 5-(3-((1R,2R,3R,5R)-5-chloro-2-((3,5-dichlorophenylsulfinyl)methyl)-3-hydroxycyclopentyl)propyl)-thiophene-2-carboxylic acid]	7.00	9.40	7.92		< 5.00		4210						
O=C(O)c1ccc(CCC[C@@H]2[C@@H](CSc3cc(F)cc(F)c3)[C@H](O)C[C@H]2Cl)s1 [compound 25, 5-(3-((1R,2R,3R,5R)-5-chloro-2-((3,5-difluorophenylthio)methyl)-3-hydroxycyclopentyl)propyl)-thiophene-2-carboxylic acid]	6.07	8.89	8.05	< 5.00	5.63								

Reference: patent publication US7605178B2, “Therapeutic compounds” (Allergan, Inc., priority 2006, dated 2009)
